Laboratory results taken from ChEMBL document CHEMBL1143100, “Phenylethynyl-pyrrolo[1,2-a]pyrazine: a new potent and selective tool in the mGluR5 antagonists arena” (Bioorg Med Chem Lett, 2008).
pIC50: −log10 of the molar value. Values after ≈ are worked out from the molar mass of the structure shown.

What was measured:
[1] = target: Metabotropic glutamate receptor 5 (Homo sapiens, UniProt P41594); assay: Antagonist activity at human mGluR5 expressed in CHO cells assessed as increase in intracellular calcium level by FLIPR; format: functional, cell-based
Sequence of Metabotropic glutamate receptor 5 (P41594 whole entry): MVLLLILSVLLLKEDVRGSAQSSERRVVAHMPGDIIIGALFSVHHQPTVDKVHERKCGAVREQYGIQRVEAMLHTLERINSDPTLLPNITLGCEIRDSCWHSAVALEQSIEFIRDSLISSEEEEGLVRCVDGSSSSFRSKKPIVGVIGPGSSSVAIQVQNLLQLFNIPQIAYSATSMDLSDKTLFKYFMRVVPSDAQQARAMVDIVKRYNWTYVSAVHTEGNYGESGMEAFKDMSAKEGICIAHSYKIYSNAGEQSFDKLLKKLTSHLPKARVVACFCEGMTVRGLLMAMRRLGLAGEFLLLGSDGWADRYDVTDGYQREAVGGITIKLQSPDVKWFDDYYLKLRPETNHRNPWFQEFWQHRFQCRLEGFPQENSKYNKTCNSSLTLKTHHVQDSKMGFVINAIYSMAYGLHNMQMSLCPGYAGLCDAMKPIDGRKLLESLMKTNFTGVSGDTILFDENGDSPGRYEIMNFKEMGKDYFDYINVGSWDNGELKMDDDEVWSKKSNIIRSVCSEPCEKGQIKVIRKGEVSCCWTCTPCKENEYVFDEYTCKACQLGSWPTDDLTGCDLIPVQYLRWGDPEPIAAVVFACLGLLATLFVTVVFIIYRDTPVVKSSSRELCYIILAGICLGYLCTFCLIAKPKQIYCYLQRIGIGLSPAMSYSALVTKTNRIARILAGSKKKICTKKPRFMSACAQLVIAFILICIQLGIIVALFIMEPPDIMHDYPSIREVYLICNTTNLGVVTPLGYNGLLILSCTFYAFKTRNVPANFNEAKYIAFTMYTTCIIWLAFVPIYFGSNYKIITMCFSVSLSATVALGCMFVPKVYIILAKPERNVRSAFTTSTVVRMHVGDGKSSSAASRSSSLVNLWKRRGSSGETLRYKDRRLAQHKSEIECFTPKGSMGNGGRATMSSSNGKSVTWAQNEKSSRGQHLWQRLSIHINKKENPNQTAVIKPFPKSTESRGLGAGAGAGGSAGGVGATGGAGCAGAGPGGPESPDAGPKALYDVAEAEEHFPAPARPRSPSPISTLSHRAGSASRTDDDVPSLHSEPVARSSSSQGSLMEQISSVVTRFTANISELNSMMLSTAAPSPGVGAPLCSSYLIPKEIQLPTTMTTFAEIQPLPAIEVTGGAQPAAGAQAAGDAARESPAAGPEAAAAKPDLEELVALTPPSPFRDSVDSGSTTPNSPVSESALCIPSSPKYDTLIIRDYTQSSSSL

[2] = Solubility at pH 7.4; format: physicochemical; settings: buffer

SMILES | pIC50 [1] | solubility [2]
Cc1cn2cc(C(=O)N3CCC(F)(F)C3)cc2c(C#Cc2ccsc2)n1 | 6.90 | 
Cc1cn2cccc2c(C#Cc2ccc(Br)cc2)n1 | < 4.90 | 
Cc1cc2c(C#Cc3ccccc3)nc(C)cn2c1 | 7.30 | 
Cc1cn2cc(C(F)(F)F)cc2c(C#Cc2cccc(-c3ccsc3)c2)n1 | 5.30 | 
Cc1cc2c(C#Cc3cccnc3)nc(C)cn2c1 | 5.70 | 
Cc1cn2cc(C(F)(F)F)cc2c(C#Cc2cccs2)n1 | 7.20 | 
Cc1cn2cc(C(F)(F)F)cc2c(C#Cc2ccc(F)cc2F)n1 | < 4.80 | 
Cc1cn2cc(C(=O)N3CCCCC3C)cc2c(C#Cc2ccsc2)n1 (configuration not stated) | 7.00 | 
Cc1cn2cc(C#N)cc2c(C#Cc2cccc(F)c2)n1 | 9.10 | 
Cc1cn2cc(C(F)(F)F)cc2c(C#Cc2cccnc2)n1 | 6.30 | 
Cc1cn2cc(C(=O)N3CCN(C)CC3)cc2c(C#Cc2ccsc2)n1 | 6.80 | 
Cc1cccc(C#Cc2nc(C)cn3cccc23)c1 | 9.40 | 
Cc1cn2cc(CN3CCNC(=O)C3)cc2c(C#Cc2ccccc2)n1 | 6.70 | 
Cc1cn2cc(C(=O)N3CCN(C)CC3)cc2c(C#Cc2cccc(C(F)(F)F)c2)n1 | 6.60 | 
Cc1cn2cc(C(F)(F)F)cc2c(C#Cc2ccc(C(F)(F)F)cc2)n1 | < 4.80 | 
Cc1cn2cc(C(F)(F)F)cc2c(C#Cc2ccc(NS(C)(=O)=O)cc2)n1 | < 4.80 | 
Cc1cn2cc(C(=O)N3CCCC3)cc2c(C#Cc2ccsc2)n1 | 7.70 | 
Cc1cn2cc(C(F)(F)F)cc2c(C#Cc2ccc(C#N)cc2)n1 | < 4.80 | 
Cc1cn2cc(C(=O)N3CCCC3C)cc2c(C#Cc2ccsc2)n1 (configuration not stated) | 7.40 | 
Cc1cn2cc(C(F)(F)F)cc2c(C#Cc2cccc(Br)c2)n1 | 7.60 | 
Cc1cn2cc(C(F)(F)F)cc2c(C#Cc2cccc(-c3ccoc3)c2)n1 | 5.00 | 
CCOC(=O)c1cc2c(C#Cc3ccc(C#N)cc3)nc(C)cn2c1 | < 4.80 | 
Cc1cn2cc(C(N)=O)cc2c(C#Cc2ccccc2F)n1 | 6.30 | 
Cc1cc2c(C#Cc3ccc(C(F)(F)F)cc3)nc(C)cn2c1 | < 4.80 | 
Cc1cn2cc(C(F)(F)F)cc2c(C#Cc2cccc(C(=O)O)c2)n1 | < 4.90 | 
Cc1cn2cc(C(F)(F)F)cc2c(C#Cc2cccc(-c3c(C)noc3C)c2)n1 | < 4.90 | 
Cc1cccc(C#Cc2ccccc2)n1 |  | 70 µg/mL (≈ 362 µM)
